The structures appear in SMILES notation.

The results in this text go back to patent US20080139558A1, “QUINOLONES USEFUL AS INDUCIBLE NITRIC OXIDE SYNTHASE INHIBITORS” (KALYPSYS, INC., priority 2006, published 2008).

For this experiment, the target named is T1, human iNOS (Homo sapiens, UniProt P35228).
T1 construct: expressed in transfected cells; host or cells: HEK293
The experiment in a line: DAN assay of nitric oxide production (hiNOS). The experiment is classed as cell-based. The note with it: enzyme expressed in HEK293 cells transiently transfected with human iNOS. The text has this:
The source of nitric oxide synthase (NOS) enzyme can be generated in several ways including induction of endogenous iNOS using cytokines and/or lipopolysaccharide (LPS) in various cell types known in the art. Alternatively, the gene encoding the enzyme can be cloned and the enzyme can be generated in cells via heterologous expression from a transient or stable expression plasmid with suitable features for protein expression as are known in the art. Enzymatic activity (nitric oxide production) is calcium independent for iNOS, while the constitutive NOS isoforms, nNOS and eNOS, become active with the addition of various cofactors added to cellular media or extract as are well known in the art. Enzymes specified in Table 1 were expressed in HEK293 cells transiently transfected with human iNOS.
A major metabolic pathway for nitric oxide is to nitrate and nitrite, which are stable metabolites within tissue culture, tissue, plasma, and urine (S Moncada, A Higgs, N Eng J Med 329, 2002 (1993)).
The level of nitrate or nitrite in the specimen can be quantified by any method known in the art which provides adequate sensitivity and reproducibility. A variety of protocols have also been described for detecting and quantifying nitrite and nitrate levels in biological fluids by ion chromatography (e.g., A Everett et al., J. Chromatogr. 706, 437 (1995); J M Monaghan et al., J. Chromatogr. 770, 143 (1997)), high-performance liquid chromatography (e.g., M Kelm et al., Cardiovasc. Res. 41, 765 (1999)), and capillary electrophoresis (MA Friedberg et al., J. Chromatogr. 781, 491 (1997)). For example, 2,3-diaminonaphthalene reacts with the nitrosonium cation that forms spontaneously from NO to form the fluorescent product 1H-naphthotriazole. Using 2,3-diaminonaphthalene (“DAN”), researchers have developed a rapid, quantitative fluorometric assay that can detect from 10 nM to 10 μM nitrite and is compatible with a multi-well microplate format. […] DAN reacts with nitrite ion and gives fluorescent naphthotriazole (MC Carré et al., Analusis 27, 835-838 (1999)). Table 1 provides the test results of various compounds of the subject invention using the DAN assay.
A specimen can be processed prior to determination of nitrate or nitrite as required by the quantification method, or in order to improve the results, or for the convenience of the investigator. For example, processing can involve centrifuging, filtering, or homogenizing the sample. If the sample is whole blood, the blood can be centrifuged to remove cells and the nitrate or nitrite assay performed on the plasma or serum fraction. If the sample is tissue, the tissue can be dispersed or homogenized by any method known in the art prior to determination of nitrate or nitrite. It may be preferable to remove cells and other debris by centrifugation or another method and to determine the nitrate or nitrite level using only the fluid portion of the sample, or the extracellular fluid fraction of the sample. The sample can also be preserved for later determination, for example by freezing of urine or plasma samples. When appropriate, additives may be introduced into the specimen to preserve or improve its characteristics for use in the nitrate or nitrite assay.
The “level” of nitrate, nitrite, or other NO-related product usually refers to the concentration (in moles per liter, micromoles per liter, or other suitable units) of nitrate or nitrite in the specimen, or in the fluid portion of the specimen. However, other units of measure can also be used to express the level of nitrate or nitrite. For example, an absolute amount (in micrograms, milligrams, nanomoles, moles, or other suitable units) can be used, particularly if the amount refers back to a constant amount (e.g., grams, kilograms, milliliters, liters, or other suitable units) of the specimens under consideration. A number of commercially available kits can be used. […]

T1 sequence (P35228 whole entry): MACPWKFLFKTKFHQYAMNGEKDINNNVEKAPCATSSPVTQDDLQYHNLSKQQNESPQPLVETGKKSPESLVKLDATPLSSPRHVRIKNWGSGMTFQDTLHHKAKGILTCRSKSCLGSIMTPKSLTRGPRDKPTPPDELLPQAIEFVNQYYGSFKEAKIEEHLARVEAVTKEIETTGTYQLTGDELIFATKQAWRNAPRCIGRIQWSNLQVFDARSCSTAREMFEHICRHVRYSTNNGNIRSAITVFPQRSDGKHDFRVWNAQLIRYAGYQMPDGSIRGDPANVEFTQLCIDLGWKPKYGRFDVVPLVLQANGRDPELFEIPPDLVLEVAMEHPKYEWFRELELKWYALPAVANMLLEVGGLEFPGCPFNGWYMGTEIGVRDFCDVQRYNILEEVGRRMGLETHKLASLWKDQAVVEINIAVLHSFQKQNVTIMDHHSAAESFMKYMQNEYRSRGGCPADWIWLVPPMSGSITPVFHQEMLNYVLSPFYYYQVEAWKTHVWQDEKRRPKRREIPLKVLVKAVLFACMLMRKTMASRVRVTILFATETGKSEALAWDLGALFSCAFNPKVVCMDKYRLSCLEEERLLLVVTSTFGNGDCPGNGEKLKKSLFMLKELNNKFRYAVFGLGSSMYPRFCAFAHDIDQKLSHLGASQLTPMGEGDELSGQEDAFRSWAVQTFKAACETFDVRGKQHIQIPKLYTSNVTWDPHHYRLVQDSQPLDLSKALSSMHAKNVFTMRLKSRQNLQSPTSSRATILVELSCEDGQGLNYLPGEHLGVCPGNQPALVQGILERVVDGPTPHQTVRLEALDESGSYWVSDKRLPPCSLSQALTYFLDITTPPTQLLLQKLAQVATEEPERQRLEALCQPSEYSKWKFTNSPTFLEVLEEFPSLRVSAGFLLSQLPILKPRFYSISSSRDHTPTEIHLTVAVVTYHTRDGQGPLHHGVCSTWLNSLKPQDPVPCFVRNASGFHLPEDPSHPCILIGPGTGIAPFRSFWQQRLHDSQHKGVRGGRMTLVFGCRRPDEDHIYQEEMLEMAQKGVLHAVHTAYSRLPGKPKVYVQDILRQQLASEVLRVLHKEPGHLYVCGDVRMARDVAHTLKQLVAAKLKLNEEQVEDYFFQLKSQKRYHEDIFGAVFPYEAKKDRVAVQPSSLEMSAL

Turning to `O=C(C1CC1)N(Cc1cc(=O)[nH]c2c(F)cccc12)c1cccc(Cl)c1` [Example 81, N-(3-Chlorophenyl)-N-((8-fluoro-2-oxo-1,2-dihydroquinolin-4-yl)methyl)cyclopropanecarboxamide], the EC50 is > 5 µM. Consider `O=c1cc(Cn2c(C3CCCCC3)nc3ccccc32)c2ccc(F)c(F)c2[nH]1` [Example 204, 4-((2-Cyclohexyl-1H-benzo[d]imidazol-1-yl)methyl)-7,8-difluoroquinolin-2(1H)-one], for which the EC50 is > 5 µM. With `O=c1cc(CN(c2cccc(Cl)c2)S(=O)(=O)c2cccnc2)c2ccc(F)c(F)c2[nH]1` [Example 261, N-(3-chlorophenyl)-N-((7,8-difluoro-2-oxo-1,2-dihydroquinolin-4-yl)methyl)pyridine-3-sulfonamide] the figure was ≤ 5 µM; with `O=C(c1cnccn1)N(Cc1cc(=O)[nH]c2ccccc12)c1ccccc1` [Example 36, N-((2-Oxo-1,2-dihydroquinolin-4-yl)methyl)-N-phenylpyrazine-2-carboxamide], > 5 µM. `O=C(c1cccnc1)N(Cc1cc(=O)[nH]c2c(F)cccc12)c1cccc(Cl)c1` [Example 68, N-(3-Chlorophenyl)-N-((8-fluoro-2-oxo-1,2-dihydroquinolin-4-yl)methyl)nicotinamide]: the EC50 is > 5 µM. As for `Cc1cnc(C(=O)N(Cc2cc(=O)[nH]c3ccccc23)c2ccccc2)cn1` [Example 35, 5-Methyl-N-((2-oxo-1,2-dihydroquinolin-4-yl)methyl)-N-phenylpyrazine-2-carboxamide], the figure is ≤ 5 µM; as for `O=c1cc(CN(c2cccc(Cl)c2)c2nccc3ccccc23)c2cccc(F)c2[nH]1` [Example 78, 4-(((3-Chlorophenyl)(isoquinolin-1-yl)amino)methyl)-8-fluoroquinolin-2(1H)-one], > 5 µM; as for `CN(Cc1cc(=O)[nH]c2ccccc12)C(=O)c1ccco1` [Example 8, N-Methyl-N-[(2-oxo-1,2-dihydroquinolin-4-yl)methyl]-2-furamide], ≤ 5 µM. As for `O=c1cc(Cn2c(-c3cccnc3)nc3ccccc32)c2cccc(F)c2[nH]1` [Example 118, 8-Fluoro-4-((2-(pyridin-3-yl)-1H-benzo[d]imidazol-1-yl)methyl)quinolin-2(1H)-one], the figure is > 5 µM; as for `O=C(c1cccc2ccccc12)N(Cc1cc(=O)[nH]c2c(F)cccc12)c1cccc(Cl)c1` [Example 82, N-(3-Chlorophenyl)-N-((8-fluoro-2-oxo-1,2-dihydroquinolin-4-yl)methyl)-1-naphthamide], > 5 µM; as for `CN(C)c1nc2ccccc2n1Cc1cc(=O)[nH]c2c(F)c(F)ccc12` [Example 201, 4-((2-(Dimethylamino)-1H-benzo[d]imidazol-1-yl)methyl)-7,8-difluoroquinolin-2(1H)-one], > 5 µM. With `Cc1nc(Br)sc1C(=O)N(Cc1cc(=O)[nH]c2ccccc12)c1ccccc1` [Example 99, 2-Bromo-4-methyl-N-((2-oxo-1,2-dihydroquinolin-4-yl)methyl)-N-phenylthiazole-5-carboxamide] the figure was ≤ 5 µM. Take `O=c1cc(Cn2cnc(-c3ccccc3)c2)c2ccc(F)c(F)c2[nH]1` [Example 260, 7,8-Difluoro-4-((4-phenyl-1H-imidazol-1-yl)methyl)quinolin-2(1H)-one]: the EC50 is > 5 µM. In the case of `Cc1cccc(N(Cc2cc(=O)[nH]c3c(F)c(F)ccc23)C(=O)c2scnc2C)c1` [Example 94, N-(3-Methylphenyl)-N-((7,8-fluoro-2-oxo-1,2-dihydroquinolin-4-yl)methyl)-4-methylthiazole-5-carboxamide], the 50% effective concentration (EC50) was ≤ 5 µM.

Take `O=c1cc(Cn2c(N3CCOCC3)nc3ccccc32)c2ccc(F)c(F)c2[nH]1` [Example 200, 7,8-Difluoro-4-((2-morpholino-1H-benzo[d]imidazol-1-yl)methyl)quinolin-2(1H)-one]: the EC50 is > 5 µM.

As to `COC(=O)C(=O)N(Cc1cc(=O)[nH]c2c(F)cccc12)c1cccc(Cl)c1` [Example 63, Methyl 2-((3-chlorophenyl)((8-fluoro-2-oxo-1,2-dihydroquinolin-4-yl)methyl)amino)-2-oxoacetate], the EC50 is > 5 µM. With `Cn1cncc1C(=O)N(Cc1cc(=O)[nH]c2c(F)cccc12)c1cccc(Cl)c1` [Example 48, N-(3-Chlorophenyl)-N-((8-fluoro-2-oxo-1,2-dihydroquinolin-4-yl)methyl)-1-methyl-1H-imidazole-5-carboxamide] the figure was > 5 µM. For the compound `COc1ccc(C(=O)N(Cc2cc(=O)[nH]c3c(F)cccc23)c2cccc(Cl)c2)cc1` [Example 62, N-(3-Chlorophenyl)-N-((8-fluoro-2-oxo-1,2-dihydroquinolin-4-yl)methyl)-4-methoxybenzamide], the EC50 was > 5 µM. With `CC(C)N(Cc1cc(=O)[nH]c2ccccc12)C(=O)c1ccco1` [Example 9, N-Isopropyl-N-[(2-oxo-1,2-dihydroquinolin-4-yl)methyl]-2-furamide] the figure was ≤ 5 µM. As for `Cc1cccc(N(Cc2cc(=O)[nH]c3c(F)cccc23)C(=O)c2scnc2C)c1` [Example 93, N-(3-Methylphenyl)-N-((8-fluoro-2-oxo-1,2-dihydroquinolin-4-yl)methyl)-4-methylthiazole-5-carboxamide], the figure is ≤ 5 µM; as for `Cc1ncsc1C(=O)N(Cc1cc(=O)[nH]c2c(F)c(F)ccc12)c1ccccc1` [Example 175, N-Phenyl-N-((7,8-fluoro-2-oxo-1,2-dihydroquinolin-4-yl)methyl)-4-methylthiazole-5-carboxamide], ≤ 5 µM.

On to `Cc1ncccc1C(=O)N(Cc1cc(=O)[nH]c2ccccc12)c1ccccc1` [Example 37, 2-Methyl-N-((2-oxo-1,2-dihydroquinolin-4-yl)methyl)-N-phenylnicotinamide], for which the concentration giving a half-maximal response (EC50) is ≤ 5 µM. On to `CC(=O)N(Cc1cc(=O)[nH]c2ccccc12)c1ccccc1` [Example 3, N-[(2-Oxo-1,2-dihydroquinolin-4-yl)methyl]-N-phenylacetamide], for which the EC50 is > 5 µM.

As to `Cc1oncc1C(=O)N(Cc1cc(=O)[nH]c2ccccc12)c1ccccc1` [Example 31, 5-Methyl-N-((2-oxo-1,2-dihydroquinolin-4-yl)methyl)-N-phenylisoxazole-4-carboxamide], the EC50 was > 5 µM. In the case of `O=c1cc(Cn2c(-c3cccc(F)c3)nc3ccccc32)c2ccc(F)c(F)c2[nH]1` [Example 196, 7,8-Difluoro-4-((2-(3-fluorophenyl)-1H-benzo[d]imidazol-1-yl)methyl)quinolin-2(1H)-one], the EC50 is ≤ 5 µM. Regarding `Cn1cncc1-c1nc2ccccc2n1Cc1cc(=O)[nH]c2c(F)c(F)ccc12` [Example 122, 7,8-Difluoro-4-((2-(1-methyl-1H-imidazol-5-yl)-1H-benzo[d]imidazol-1-yl)methyl)quinolin-2(1H)-one], the EC50 was ≤ 5 µM. `O=C(c1ccccc1F)N(Cc1cc(=O)[nH]c2c(F)cccc12)c1cccc(Cl)c1` [Example 54, N-(3-Chlorophenyl)-2-fluoro-N-((8-fluoro-2-oxo-1,2-dihydroquinolin-4-yl)methyl)benzamide]: the EC50 is > 5 µM. With `Cc1ncsc1C(=O)N(Cc1cc(=O)[nH]c2c(F)c(F)ccc12)c1cccc(Cl)c1F` [Example 96, N-(3-Chloro-2-fluorophenyl)-N-((7,8-fluoro-2-oxo-1,2-dihydroquinolin-4-yl)methyl)-4-methylthiazole-5-carboxamide], the EC50 is ≤ 5 µM.
